Measured values from paper PMC3262104 (Journal of the American Chemical Society, 2011).

Legend:
[1] = test system: P-gp; settings: brain; cited from earlier work
[2] = molecular target: T1, P-gp (Homo sapiens, UniProt P08183); assay: Inhibition of P-gp-mediated efflux of calcein-AM in 12D7-MDR cells; type: cell-based
[3] = molecular target: T1, P-gp; assay: [125I]IAAP photo-crosslinking competition, crude Sf9 membranes expressing P-gp; type: binding
[4] = test system: HIV-1LAI; assay: Inhibition of HIV-1 replication, HIV p24 ELISA in infected 12D7 cells; type: cell-based; settings: Human immunodeficiency virus 1, read-out: IC50 inhibition of HIV-1 replication

T1 sequence (P08183 whole entry): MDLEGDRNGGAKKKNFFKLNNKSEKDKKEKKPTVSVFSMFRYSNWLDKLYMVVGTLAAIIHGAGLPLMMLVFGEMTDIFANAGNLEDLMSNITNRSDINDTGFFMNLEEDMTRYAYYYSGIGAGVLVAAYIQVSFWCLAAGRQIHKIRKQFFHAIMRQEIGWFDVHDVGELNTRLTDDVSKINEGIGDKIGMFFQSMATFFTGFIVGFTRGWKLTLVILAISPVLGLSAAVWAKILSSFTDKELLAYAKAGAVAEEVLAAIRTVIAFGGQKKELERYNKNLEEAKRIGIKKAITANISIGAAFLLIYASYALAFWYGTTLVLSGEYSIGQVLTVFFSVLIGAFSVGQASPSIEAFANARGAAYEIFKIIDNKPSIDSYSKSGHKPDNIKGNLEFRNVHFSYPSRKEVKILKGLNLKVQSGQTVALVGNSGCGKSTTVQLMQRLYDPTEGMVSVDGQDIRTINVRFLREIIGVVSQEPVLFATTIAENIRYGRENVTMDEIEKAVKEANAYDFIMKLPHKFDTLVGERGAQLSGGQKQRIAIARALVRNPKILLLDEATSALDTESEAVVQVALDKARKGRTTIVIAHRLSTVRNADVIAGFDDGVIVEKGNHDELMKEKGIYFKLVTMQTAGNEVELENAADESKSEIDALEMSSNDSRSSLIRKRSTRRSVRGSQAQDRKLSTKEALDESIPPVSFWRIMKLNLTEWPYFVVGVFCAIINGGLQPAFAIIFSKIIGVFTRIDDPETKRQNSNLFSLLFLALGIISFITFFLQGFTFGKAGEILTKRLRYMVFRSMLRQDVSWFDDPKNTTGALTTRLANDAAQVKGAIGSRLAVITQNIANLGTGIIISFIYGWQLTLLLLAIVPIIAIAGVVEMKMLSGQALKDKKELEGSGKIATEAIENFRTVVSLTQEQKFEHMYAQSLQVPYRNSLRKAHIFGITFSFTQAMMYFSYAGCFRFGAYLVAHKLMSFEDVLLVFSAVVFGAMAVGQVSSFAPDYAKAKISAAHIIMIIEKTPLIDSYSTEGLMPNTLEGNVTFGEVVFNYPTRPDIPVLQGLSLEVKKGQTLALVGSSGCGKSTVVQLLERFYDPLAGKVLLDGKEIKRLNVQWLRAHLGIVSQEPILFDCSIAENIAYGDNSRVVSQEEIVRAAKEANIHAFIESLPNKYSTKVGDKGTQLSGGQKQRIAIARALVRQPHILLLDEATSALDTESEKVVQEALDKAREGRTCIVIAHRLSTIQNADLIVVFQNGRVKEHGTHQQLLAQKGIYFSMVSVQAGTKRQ

## Nc1nc(NC2CC2)c2ncn([C@H]3C=C[C@@H](CO)C3)c2n1 [abacavir]
[1]
  Increased levels in the brains of dosed P-gp-null mice versus dosed wild-type mice: 20 fold
[2]
  IC50: > 500 µM
[2]; 12D7-MDR cells, at a concentration of 500 µM
  Inhibition of P-gp mediated efflux of fluorescent substrates: only minimally effective
[3]
  IC50: > 100 µM
[4]
  IC50: ~0.6 µM
